In this experiment the test system is Apt(ATP) (DNA, aptamer) TCTCTCACCTGGGGGAGTATTGCGGAGGAAGGT
Put plainly: FAM fluorescence quenching titration. The conditions noted are these: 100 mM NaCl, 5 mM MgCl2, 20 mM Tris-HCl, pH 7.4, 66.7 nM aptamer.

Take `Nc1ccn([C@@H]2O[C@H](COP(=O)(O)OP(=O)(O)OP(=O)(O)O)[C@@H](O)[C@H]2O)c(=O)n1`: the binding entry (35.7% quenching at about 330 μM) is on record as “weak”.

On to `Nc1nc2c(ncn2[C@@H]2O[C@H](COP(=O)(O)OP(=O)(O)OP(=O)(O)O)[C@@H](O)[C@H]2O)c(=O)[nH]1`, for which the binding result (18.6% quenching at about 330 μM) is listed as “weak”.

With `Nc1ncnc2c1ncn2[C@@H]1O[C@H](COP(=O)(O)OP(=O)(O)OP(=O)(O)O)[C@@H](O)[C@H]1O`, the binding result (67.1% quenching at about 0.33 mM ATP) was “yes”. With `O=c1ccn([C@@H]2O[C@H](COP(=O)(O)OP(=O)(O)OP(=O)(O)O)[C@@H](O)[C@H]2O)c(=O)[nH]1`, the binding entry (weaker quenching than ATP, up to about 330 μM) was “weak”.
